According to ChEMBL document CHEMBL1201862, “PubChem BioAssay data set” (2004):
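48-hour exposure; five concentrations; linearly interpolated endpoints. Here, GI50 denotes the concentration required for 50% inhibition of growth.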 Activity calls are given as the source filed them. No stated cut-off is given here; in the data, active = GI50 up to about 1.1 µM and inactive = higher.

What was measured:
Test in all cases: NCI anticancer screen, dose series, 48 h
[1] = tested on: LXFL 529
[2] = tested on: M19-MEL
[3] = tested on: DMS-114
[4] = tested on: KM-20L2
[5] = tested on: DMS-273
[6] = tested on: DLD-1
[7] = tested on: HOP-18
[8] = tested on: RXF 631
[9] = tested on: XF498

Measured: GI50

O=C1C=CC=CC2CC=C[C@@H](O)C12 (stereo partly drawn)
inactive: [1] 17.5 µM | [2] 16.8 µM | [3] 18.1 µM | [4] 21 µM | [5] 22.6 µM | [6] 25.1 µM

CC1=C(C)C(=O)c2c(cc3ccc4ccccc4n23)C1=O
inactive: [1] > 100 µM | [2] > 100 µM | [3] > 100 µM | [7] > 100 µM | [8] > 100 µM | [5] > 100 µM | [6] > 100 µM

COc1cccc2c1[C@H]1OC(=O)NC1CCCCC2 (stereo partly drawn)
inactive: [1] > 100 µM | [2] > 100 µM | [3] > 100 µM | [7] > 100 µM | [4] > 100 µM | [5] > 100 µM | [6] > 100 µM

O=C1Nc2ccccc2/C1=N/NC(=O)c1ccccc1O
inactive: [1] 41.3 µM | [2] 53 µM | [3] 43.4 µM | [7] 56 µM | [4] > 100 µM | [6] 29.3 µM

CC1CCP(=O)(c2ccccc2)CC1 (stereo not drawn)
inactive: [1] > 100 µM | [2] > 100 µM | [3] > 100 µM | [9] > 100 µM | [8] > 100 µM | [4] > 100 µM | [5] > 100 µM | [6] > 100 µM

[O-][n+]1c2cc(CN3CCOCC3)c(CN3CCOCC3)cc2[n+]([O-])c2c(O)cccc21
inactive: [1] 3.1 µM | [2] 2.9 µM | [9] 1.83 µM | [7] 3.55 µM | [8] 16.1 µM | [4] 5.93 µM | [5] 3.44 µM | [6] 2.12 µM

CCc1nc2cc(/N=N/c3c(O)ccc4ccccc34)ccc2[nH]1
inactive: [1] 11.5 µM | [2] 18.9 µM | [3] 17.3 µM | [4] 19.6 µM | [5] 17.1 µM | [6] 15 µM

CC(=O)NC(CCCCNCc1ccccc1)C(=O)NCc1ccccc1 (stereo not drawn)
inactive: [1] > 100 µM | [2] > 100 µM | [3] > 100 µM | [9] > 100 µM | [4] > 100 µM | [5] > 100 µM | [6] > 100 µM

CCOC(=O)NC(=O)c1cn(CCCO)c(=O)[nH]c1=O
inactive: [2] > 100 µM | [3] > 100 µM | [9] > 100 µM | [7] > 100 µM | [8] > 100 µM | [4] > 100 µM | [5] > 100 µM | [6] > 100 µM

COc1ccc2c(CCNC(C)=O)c(C(C)=O)[nH]c2c1
inactive: [1] > 100 µM | [3] > 100 µM | [8] > 100 µM | [4] > 100 µM | [5] > 100 µM | [6] > 100 µM

CSc1nc2[nH]c(=O)c(C)nc2c(=O)[nH]1
inactive: [1] > 100 µM | [2] > 100 µM | [3] > 100 µM | [9] > 100 µM | [4] > 100 µM | [5] > 100 µM | [6] > 100 µM

CN(C)CCNC(=O)c1cccc2ccc(-c3ccc(-c4ccccc4)cc3)nc12
inactive: [1] 1.83 µM | [2] 1.81 µM | [3] 1.7 µM | [7] 12.9 µM | [8] 1.76 µM | [4] 1.98 µM | [5] 1.69 µM | [6] 2.45 µM

CN(C)c1[se]nc2c1c(=O)n(C)c(=O)n2C
inactive: [1] > 100 µM | [2] > 100 µM | [3] > 100 µM | [9] > 100 µM | [7] 19.4 µM | [8] > 100 µM | [4] > 100 µM | [5] > 100 µM | [6] > 100 µM

O=C(/C=C/c1ccc(OCCCOc2ccc(/C=C/C(=O)c3ccccc3)cc2)cc1)c1ccccc1
inactive: [1] > 100 µM | [2] > 100 µM | [3] > 100 µM | [8] 51.2 µM | [4] > 100 µM | [5] > 100 µM | [6] > 100 µM

COC(=O)NC(=O)c1cn(CCCOC(=O)CCCCCCCCC(=O)OCCCn2cc(C(=O)NC(=O)OC)c(=O)[nH]c2=O)c(=O)[nH]c1=O
inactive: [1] > 100 µM | [2] > 100 µM | [3] > 100 µM | [9] 19.3 µM | [7] > 100 µM | [8] 50.9 µM | [4] > 100 µM | [5] > 100 µM | [6] > 100 µM

O=c1c2cc(Br)cc(Br)c2[nH]c(=S)n1-c1ccccc1
inactive: [2] > 100 µM | [3] 56.2 µM | [9] 21.4 µM | [7] 35.3 µM | [8] > 100 µM | [4] > 100 µM | [5] > 100 µM | [6] > 100 µM

CC(C(=O)c1ccccc1)C1(O)C(=O)Nc2ccc(Cl)cc21 (stereo not drawn)
inactive: [1] 72.3 µM | [2] 16.7 µM | [3] 56.8 µM | [9] > 100 µM | [7] 12.8 µM | [4] > 100 µM | [6] > 100 µM

COC(=O)C1C(=O)O[C@@H](c2ccc(OC)cc2)C1C(=O)OC (stereo partly drawn)
inactive: [1] > 100 µM | [2] > 100 µM | [3] > 100 µM | [9] > 100 µM | [7] > 100 µM | [4] > 100 µM | [5] > 100 µM | [6] > 100 µM

CN(C(=O)C12C3C4C1C1C2C3C41C(O)C(C)(C)C)C(C)(C)C (stereo not drawn)
inactive: [1] > 100 µM | [2] > 100 µM | [3] > 100 µM | [9] > 100 µM | [8] > 100 µM | [4] > 100 µM | [5] > 100 µM | [6] > 100 µM

COC(=O)C(=O)CC(=O)CCn1ncc(Cl)c(Cl)c1=O
inactive: [1] 10 µM | [2] 4.01 µM | [3] 3.15 µM | [9] 29 µM | [8] 8.55 µM | [4] 16.9 µM | [5] 14.9 µM | [6] 10.3 µM

CSc1nc(NC2OCC(OC(C)=O)C(OC(C)=O)C2OC(C)=O)c2c(OC(C)=O)c(C)c(=O)oc2n1 (stereo not drawn)
inactive: [1] > 100 µM | [2] > 100 µM | [3] > 100 µM | [9] > 100 µM | [7] > 100 µM | [8] > 100 µM | [4] > 100 µM | [6] > 100 µM

CCN(CC)c1ccc(/N=C2/C=CC(=O)c3ncccc32)c(C)c1
inactive: [1] 2.48 µM | [2] 10.4 µM | [3] 3.9 µM | [9] 2.02 µM | [7] 10.5 µM | [8] 14.2 µM | [4] 13.5 µM | [5] 8.3 µM | [6] 3.42 µM

O=C1CCN2C(=O)CCN12
inactive: [1] > 100 µM | [2] > 100 µM | [3] > 100 µM | [9] > 100 µM

CCN(CC)CCNC(=O)c1ccccc1Nc1c(Cl)cccc1Cl
inactive: [1] 16.5 µM | [2] 16.1 µM | [3] 11.6 µM | [9] 4.19 µM | [4] 2.92 µM | [5] 16.5 µM | [6] 11.7 µM

O=C(O)c1ccccc1NS(=O)(=O)c1ccc([N+](=O)[O-])cc1
inactive: [1] > 100 µM | [9] > 100 µM | [7] > 100 µM | [8] > 100 µM | [4] > 100 µM | [5] > 100 µM

CC(=O)NNc1nc(C)c(C(=O)/C=C/c2ccc(Cl)cc2)s1
inactive: [2] > 100 µM | [3] > 100 µM | [7] > 100 µM | [4] > 100 µM | [5] > 100 µM | [6] > 100 µM
